Read-outs that look alike come from different tables or passages of the source.

The target in one assay is T1, Central CCK Receptors (Mus musculus, UniProt P56481).
T1 sequence (P56481 1-453): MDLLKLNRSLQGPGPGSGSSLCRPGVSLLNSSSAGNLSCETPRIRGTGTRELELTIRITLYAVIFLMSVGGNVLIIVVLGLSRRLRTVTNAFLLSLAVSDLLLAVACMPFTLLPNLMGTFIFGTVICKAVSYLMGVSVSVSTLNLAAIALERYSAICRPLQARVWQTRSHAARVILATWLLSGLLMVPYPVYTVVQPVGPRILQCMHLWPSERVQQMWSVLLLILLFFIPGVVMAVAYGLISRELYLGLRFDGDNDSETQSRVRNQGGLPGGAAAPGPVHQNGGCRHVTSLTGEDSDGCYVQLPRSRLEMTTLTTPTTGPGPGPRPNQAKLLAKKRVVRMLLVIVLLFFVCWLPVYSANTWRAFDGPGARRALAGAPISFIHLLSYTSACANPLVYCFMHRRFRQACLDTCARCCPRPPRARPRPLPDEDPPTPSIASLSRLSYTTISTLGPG
Nature of the assay: Binding to central CCK receptors (tritiated-pentagastrin displacement, cerebral cortical membranes).

Assay [1] is described as follows: Palatable Diet Feeding assay. The class given is in vivo, rat. To be noted: dose producing 50% of the maximum effect possible (zero food intake). On the procedure: In the Palatable Diet Feeding assay, adult male Hooded Lister rats weighing between 200-400 g were housed individually and trained to eat a palatable diet. This diet consisted of Nestles sweetened condensed milk, powdered rat food and rat water which when blended together set to a firm consistency. […] The intake of palatable diet was measured by weighing the food container before and after the 30-minute access period (limits of accuracy 0.1 g). Care was taken to collect and correct for any spillage of the diet. Rats had free access to pellet food and water except during the 30-minute test period.
After the training period, dose-response curves were constructed for CCK8 and several representative compounds of the present invention (n=8-10 rats per dose level).

Where [2] appears, read: read-out: Binding to Central CCK Receptors Ki, displacement of 2 nM tritiated-pentagastrin, mouse cerebral cortical membranes.

Description for Central CCK Receptors: The biological activity of compounds of the present invention was evaluated employing an initial screening test which rapidly and accurately measured the binding of the tested compound to known CCK receptor sites.
The resulting suspension was centrifuged, the supernate was discarded, and the pellet was washed by resuspension in Tris-HCl buffer followed by recentrifugation.
In saturation studies, cerebral cortical membranes were incubated at 23° C. for 120 minutes in a final volume of 500 μliter of Hepes incubation buffer (pH 7.2) together with 0.2-20 nM tritiated-pentagastrin (Amersham International, England).
In each case, the nonspecific binding was defined as that persisting in the presence of the unlabeled octapeptide CCK26-33 (10^-6 M).
Following incubation, radioactivity bound to membranes was separated from that free in solution by rapid filtration through Whatman GF/B filters and washed three times with 4 mL of ice cold Tris-HCl buffer.
The specific binding to CCK receptor sites was defined as the total bound tritiated-pentagastrin minus the amount of tritiated-pentagastrin bound in the presence of 10^-6 octapeptide, CCK26-33.
The inhibition constant (Ki) of the test compound was then calculated according to the Cheng-Prusoff equation: [formula] where [L] is the concentration of radiolabel and Ka is the equilibrium dissociation constant.

Consider `CC(Cc1c[nH]c2ccccc12)(NC(=O)OC1C2CC3CC(C2)CC1C3)C(=O)NC(CNC(=O)CCC(=O)O)Cc1ccccc1` (stereo not drawn) [Example 19, [R-(R*,S*)]-4-[[2-[[3-(1H-indol-3-yl)-2-methyl-1-oxo-2-[[(tricyclo[3.3.1.1^3,7]dec-2-yloxy)carbonyl]amino]propyl]amino]-3-phenylpropyl]amino]-4-oxobutanoic acid], for which the Ki at Central CCK Receptors (setting [2]) stood at 14 nM.
As to `CC(Cc1c[nH]c2ccccc12)(NC(=O)O[C@@H]1CCCC[C@H]1Cl)C(=O)NC(CO)Cc1ccccc1` (mixture of isomers) [Example 14, (±)-trans-2-Chlorocyclohexyl-[2-[[1-(hydroxymethyl)-2-phenylethyl]amino]-1-(1H-indol-3ylmethyl)-1-methyl-2-oxoethyl]carbamate], the “Inhibition of Feeding on Rat Palatable Diet Assay I.P. MPE50” value in assay [1] was determined as 19.5 mg/kg. Further, on Central CCK Receptors (setting [2]), the Ki turned out to be 10500 nM.
Take `CC(Cc1c[nH]c2ccccc12)(NC(=O)OC1CC2CCC1(C)C2(C)C)C(=O)NCCc1ccccc1` (racemic) [Example 8, (±)-Exo-1,7,7-trimethylbicyclo[2.2.1]hept-2-yl-[1-(1H-indol-3-ylmethyl)-1-methyl-2-oxo-2-[(2-phenylethyl)amino]ethyl]-carbamate]: on Central CCK Receptors (setting [2]), the Ki turned out to be 840 nM.
Same read-out and setting: the result for `CC(Cc1c[nH]c2ccccc12)(NC(=O)OC1CC2CC3CC(C2)C1C3)C(=O)NC(COC(=O)CCC(=O)O)Cc1ccccc1` (stereo not drawn) [Example 12, 2-[3-1H-indol-3-yl)-2-methyl-2-[[[(octahydro-2,5-methano-1H-inden-7-yl)oxy]carbonyl]amino]-1-oxopropyl]-3-phenylpropyl butanedioate] reads 85 nM; that for `CC(Cc1c[nH]c2ccccc12)(NC(=O)OC1CC2CCC1C2)C(=O)NCCc1ccccc1` (racemic) [Example 10, (±)-Endo-bicyclo[2.2.1]hept-2-yl [1-(1H-indol-3-ylmethyl)-1-methyl-2-oxo-2-[(2-phenylethyl)amino]ethyl]carbamate], 8800 nM; that for `CC1CCCCC1OC(=O)NC(C)(Cc1c[nH]c2ccccc12)C(=O)NCC(NC(=O)C=CC(=O)O)c1ccccc1` (single isomer, unassigned) [Example 41, 2-Butenoic acid, 4-[[2-[[3-(1H-indol-3-yl)-2-methyl-2-[[[(2-methyl-1-cyclohexyl)oxy]carbonyl]amino]-1-oxopropyl]amino]-1-phenylethyl]amino]-4-oxo-, [1R -[1α[R*(R*)], 2β]]-((-)-isomer)], 0.29 nM.
Same read-out and setting: then `CC(Cc1c[nH]c2ccccc12)(NC(=O)OC1C2CC3CC(C2)CC1C3)C(=O)NCC(NC(=O)C1CC1C(=O)O)c1ccccc1` (racemic) [Example 32, 2-[[[2-[[3-(1H-indol-3-yl)-2-methyl-1-oxo-2-[[(tricyclo-[3.3.1.1^3,7]dec-2-yloxy)carbonyl]amino]propyl]amino]-1-phenylethyl]amino]carbonyl]cyclopropanecarboxylic acid (cyclopropane ring is trans-(±)othercentersare R)], with 5.1 nM; and `CC(Cc1c[nH]c2ccccc12)(NC(=O)OC1CC2CCC1(C)C2(C)C)C(=O)NCCc1ccccc1` (racemic) [Example 7, (±)-Endo-1,7,7-trimethylbicyclo[2.2.1]hept-2-yl-[1-(1H-indol-3-ylmethyl)-1-methyl-2-oxo-2-[(2-phenylethyl)amino]ethyl]-carbamate], with 760 nM.
Still for that read-out and setting: then `CC(Cc1c[nH]c2ccccc12)(NS(=O)(=O)CC12CCC(CC1=O)C2(C)C)C(=O)NC(CO)Cc1ccccc1` (stereo not drawn) [Example 18, α-[[[(7,7-dimethyl-2-oxobicyclo[2.2.1]-hept-1-yl)-methyl]sulfonyl]amino]-N-[1-(hydroxymethyl)-2-phenylethyl]-α-methyl-1H-indole-3-propanamide-(Trpcenter R, phenylalanylcenter S)], with 21000 nM.
Consider `CC(Cc1c[nH]c2ccccc12)(NC(=O)OC1C2CC3CC(C2)CC1C3)C(=O)NC(CO)Cc1ccccc1` (stereo not drawn) [Example 15, [R-(R*,S*)]-Tricyclo[3.3,1.1^3,7]dec-2-yl-[2-[[1-(hydroxymethyl)-2-phenylethyl]amino]-1-(1H-indol-3-ylmethyl)-1-methyl-2-oxoethyl]carbamate], for which the “Inhibition of Feeding on Rat Palatable Diet Assay I.P. MPE50” value in assay [1] worked out at 15.7 mg/kg. On Central CCK Receptors (setting [2]), the Ki was 26 nM.
For `CC(Cc1c[nH]c2ccccc12)(NC(=O)O[C@@H]1CCCC[C@H]1Cl)C(=O)NCCc1ccccc1` (mixture of isomers) [Example 2, (±)-Trans-2-chlorocyclohexyl [1-(1H-indol-3-ylmethyl)-1-methyl-2-oxo-2-[(2-phenylethyl)amino]ethyl]carbamate], in assay [1], the “Inhibition of Feeding on Rat Palatable Diet Assay I.P. MPE50” value came out at 9.6 mg/kg. Also, the affinity on Central CCK Receptors, expressed as Ki, was 3150 nM.
For `CC(Cc1c[nH]c2ccccc12)(NC(=O)OC1C2CC3CC(C2)CC1C3)C(=O)NCC(OC(=O)CCC(=O)O)c1ccccc1` (stereo not drawn) [Example 17, 2-[[3-(1H-indol-3-yl)-2-methyl-1-oxo-2-[[(tricyclo-[3.3.1.1.^3,7]dec-2-yloxy)carbonyl]amino]propyl]amino]-1-phenylethyl butanedioate], the “Inhibition of Feeding on Rat Palatable Diet Assay I.P. MPE50” value in assay [1] was found to be 13.1 mg/kg. Further, the Ki at Central CCK Receptors (setting [2]) is 63 nM.
On to `CC(Cc1c[nH]c2ccccc12)(NC(=O)OC1C2CC3CC(C2)CC1C3)C(=O)NCC(NC(=O)CCc1nn[nH]n1)c1ccccc1` (stereo not drawn) [Example 33, Tricyclo[3.3.1.1^3,7]dec-2-yl [R,(R*,S*]-[1-(1H-indol-3-ylmethyl)-1-methyl-2-oxo-2-[[2-[[1-oxo-3-(1H -tetrazol-5-yl)propyl]amino]-2-phenylethyl]-amino]ethyl]carbamic acid ester], for which, at Central CCK Receptors (setting [2]), the Ki turned out to be 6 nM.
On the same count and under the same terms, then `CC1CCCCC1OC(=O)NC(C)(Cc1c[nH]c2ccccc12)C(=O)NC(CNC(=O)C=CC(=O)O)Cc1ccccc1` (single isomer, unassigned) [Example 43, 2-Butenoic acid, 4-[[2-[[3-)1H-indol-3-yl)-2-methyl-2-[[[(2-methyl-1-cyclohexyl)oxy]carbonyl]amino]-1-oxopropyl]amino]-3-phenylpropyl]amino]-4-oxo-[IR[1α[R*(S*)], 2β]]-((-)-isomer)], with 4 nM.
For the molecule `C[C@](Cc1c[nH]c2ccccc12)(NC(=O)CC12CC3CC(CC(C3)C1)C2)C(=O)N[C@H](CO)Cc1ccccc1` (relative stereo) [Example 5, [R-(R*,S*)]-N-[1-(hydroxymethyl)-2-phenylethyl]-α-methyl-α-[[tricyclo[3.3.1.1^3,7]dec-1-ylacetyl)-amino]-1H-indole-3-propanamide], the “Inhibition of Feeding on Rat Palatable Diet Assay I.P. MPE50” value in assay [1] was determined as 33.6 mg/kg. Further, the Ki on Central CCK Receptors (setting [2]) came out at 2230 nM.
Consider `CC(Cc1c[nH]c2ccccc12)(NC(=O)OC12CC3CC(CC(C3)C1)C2)C(=O)NCCc1ccccc1` (racemic) [Example 1, (±)-Tricyclo[3.3.1^3,7]dec-1-yl [1-(1H-indol-3-ylmethyl)-1-methyl-2-oxo-2-[(2-phenylethyl)amino]ethyl]carbamate], for which the inhibition constant (Ki) on Central CCK Receptors (setting [2]) was found to be 1230 nM.
On the same count and under the same terms, then `CC1CCCCC1OC(=O)NC(C)(Cc1c[nH]c2ccccc12)C(=O)NCC(NC(=O)CCC(=O)O)c1ccccc1` (single isomer, unassigned) [Example 40, Butanoic acid, 4-[[2-[[3-(1H-indol-3-yl)-2-methyl-2-[[[(2-methyl-1-cyclohexyl)oxy]carbonyl]amino]-1-oxopropyl]amino]-1-phenylethyl]amino]-4-oxo-[1R-[1α[R*(R*)]2β]]-((-)-isomer)], with 3.9 nM.
In the case of `CC(Cc1c[nH]c2ccccc12)(NC(=O)OC1CCCCC1Cl)C(=O)NC(COC(=O)CCC(=O)O)Cc1ccccc1` (stereo not drawn) [Example 4, 2-[[2-[[[2-chlorocyclohexyl)oxy]-carbonyl]amino]-3-(1H-indol-3-yl)-2-methyl-1-oxo-propyl]amino]-3-phenylpropyl butanedioate], the “Inhibition of Feeding on Rat Palatable Diet Assay I.P. MPE50” value in assay [1] is recorded as > 20 mg/kg. Further, the Ki at Central CCK Receptors (setting [2]) was 170 nM.
`C[C@](Cc1c[nH]c2ccccc12)(NC(=O)OC1CC2CC3CC(C2)C1C3)C(=O)N[C@H](CO)Cc1ccccc1` (stereo partly drawn) [Example 11]: the Ki at Central CCK Receptors was 54 nM.
For `CC(Cc1c[nH]c2ccccc12)(NC(=O)OC1CC2CCC1C2)C(=O)NCCc1ccccc1` (racemic) [Example 9, (±)-Exo-bicyclo[2.2.1]hept-2-yl [1-(1H-indol-3-ylmethyl)-1-methyl-2-oxo-2-[(2-phenylethyl)amino]ethyl]carbamate], on Central CCK Receptors (setting [2]), the Ki was 7500 nM.
The same measure, in the same setting: then `CC(Cc1c[nH]c2ccccc12)(NC(=O)OC1C2CC3CC(C2)CC1C3)C(=O)NC(CNC(=O)C=CC(=O)O)Cc1ccccc1` (stereo not drawn) [Example 19A, [R-(R*,S*)]-4-[[2-(1H-Indol-3-yl)-2-methyl-1-oxo-2-[[tricyclo[3.3.1.1^3,7]dec-2-yloxylcarbonyl]amino]propyl]-amino]-3-phenylpropyl]amino]-4-oxo-2-butenoic acid], with 0.08 nM.

The Ki is the dissociation constant of the complex between target and ligand, obtained from inhibition or displacement.

(Values after patent US5622983A, “N-substituted cycloalkyl and polycycloalkyl α-substituted Trp-Phe- and phenethylamine derivatives” (Warner-Lambert Company, priority 1995, dated 1997).)
